Common to all, as to assay type: in vivo
Experiment [1] relates to barnyardgrass (Echinochloa crus-qalli L.). As to the kind of experiment: Foliar treatment pot test, visual growth inhibition rate, barnyardgrass (EC). The following applies: 4.0-5.0 leaf stage, read-out: Growth inhibition rate (%) of EC Measured value; for inhibition at 250 g/ha: 192 h, 8 DAT; for inhibition at 125 g/ha: 504 h, 21 DAT. The text has this:
(§1) When the herbicidal activity in a case where two active ingredients are combined, is larger than the simple sum of the respective herbicidal activities of the two active ingredients (the expected activity), it is called a synergistic effect. The activity expected by the combination of two active ingredients can be calculated as follows (Colby S. R., “Weed”, vol. 15, p. 20-22, 1967). E=α+β−(α×β÷100) where
(§2) Upland field soil was put into a 1/1,000,000 hectare pot, and seeds of various plants (barnyardgrass (Echinochloa crus-qalli L.), crabgrass (Digitaria sanguinalis L.), giant foxtail (Setaria faberi Herrm.), velvetleaf (Abutilon theophrasti MEDIC.) and prickly sida (Sida spinosa L.)) were sown. When the respective plants reached predetermined leaf stage, herbicidal compositions in predetermined amounts were diluted with water in an amount corresponding to 300 L/ha and applied for foliar treatment by a small sprayer.
(§3) Further, in accordance with the above Colby's formula, the growth inhibition rate (calculated value) was calculated. In Tables, with respect to the compound Q, Compound Nos. in Table 1 are described, and with respect to other herbicidal compounds, common names are described. Further, in Tables, barnyardgrass is represented by “EC”, crabgrass by “DS”, giant foxtail by “SF”, velvetleaf by “AT”, and prickly sida by “SS”.

For experiment [2], the system named is velvetleaf (Abutilon theophrasti MEDIC.). The experiment is described as follows: Foliar treatment pot test, visual growth inhibition rate, velvetleaf (AT). The settings on record: Abutilon theophrasti, foliar, read-out: Growth inhibition rate (%) of AT Measured value; for inhibition at 300 g/ha: 3.1-3.4 leaf stage. In a few lines:
(§4)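 Seeds were sown in upland soil pots, and plants were sprayed on the foliage at a predetermined leaf stage with herbicidal compositions diluted in water at 300 L/ha. Growth inhibition was rated visually. Expected combination activity was calculated by Colby's formula to assess synergy.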

Experiment [3] deals with prickly sida (Sida spinosa L.). As to the kind of experiment: Foliar treatment pot test, visual growth inhibition rate, prickly sida (SS). The settings on record: Sida spinosa, foliar, read-out: Growth inhibition rate (%) of SS Measured value; for inhibition at 63 g/ha / inhibition at 125 g/ha / inhibition at 250 g/ha: 504 h, 21 DAT.
Excerpt: as §1, §2, §3

The subject of experiment [4] is crabgrass (Digitaria sanguinalis L.). As to the kind of experiment: Foliar treatment pot test, visual growth inhibition rate, crabgrass (DS). The following applies: Digitaria sanguinalis, foliar, read-out: Growth inhibition rate (%) of DS Measured value; for inhibition at 175 g/ha: 504 h, 21 DAT; for inhibition at 375 g/ha: 528 h, 3.1-4.0 leaf stage, 22 DAT. In a few lines:
as §4

The mark [5] stands for this setting: 504 h, 3.0-3.8 leaf stage, 21 DAT.
The mark [6] stands for this setting: 504 h, 4.0-4.5 leaf stage, 21 DAT.
[7] abbreviates: 336 h, 4.6-5.3 leaf stage, 14 DAT.

Read-outs that look alike come from different tables or passages of the source.

As to `CCNc1nc(Cl)nc(NC(C)(C)C)n1` [Terbuthylazine, terbuthylazine], the inhibition at 250 g/ha worked out at 10% in experiment [1] and 20% in experiment [3] (3.0-4.0 leaf stage). The inhibition at 125 g/ha in experiment [1] and in experiment [3] (3.0-4.0 leaf stage) was 0% throughout. The inhibition at 300 g/ha was determined as 50% in experiment [2] (480 h, 20 DAT); 50% in experiment [2] (504 h, 21 DAT); 25% in experiment [4] (336 h, 3.5-4.3 leaf stage, 14 DAT, 300 g/ha). The inhibition at 175 g/ha was 0% in experiment [2] (setting [5]); 15% in experiment [2] (528 h, 4.0-4.4 leaf stage, 22 DAT); 0% in experiment [4] (3.5-4.3 leaf stage). Besides, the inhibition at 500 g/ha in experiment [2] (setting [6]) was found to be 30%. Moreover, the inhibition at 1000 g/ha in experiment [2] (setting [6]) is 45%. The inhibition at 2000 g/ha in experiment [2] (setting [6]) was determined as 55%. The inhibition at 100 g/ha in experiment [3] (480 h, 1.5-2.4 leaf stage, 20 DAT, 100 g/ha) worked out at 55%. Also, the inhibition at 63 g/ha in experiment [3] (3.0-4.0 leaf stage) is 0%. For the same compound, in experiment [4], the inhibition at 375 g/ha stood at 0%.
For the compound `CCNc1nc(Cl)nc(NC(C)C)n1` [Atrazine, atrazine], the values for the inhibition at 250 g/ha in experiment [1] and in experiment [3] (3.0-3.3 leaf stage) were 10% and 65%, respectively. The inhibition at 125 g/ha in experiment [1] amounted to 0%; in experiment [3] (3.0-3.3 leaf stage), 45%. The inhibition at 500 g/ha in experiment [2] (setting [7]) was found to be 45%; in experiment [4] (336 h, 5.0-6.0 leaf stage, 14 DAT, 500 g/ha) it was 0%. Moreover, the inhibition at 1000 g/ha turned out to be 60% in experiment [2] (setting [7]) and 10% in experiment [4] (336 h, 5.0-6.0 leaf stage, 14 DAT, 1000 g/ha). For the same compound, the inhibition at 2000 g/ha in experiment [2] (setting [7]) came to 70%; in experiment [4] (336 h, 5.0-6.0 leaf stage, 14 DAT, 2000 g/ha), 25%. The inhibition at 50 g/ha came out at 30% in experiment [2] (480 h, 3.1-3.5 leaf stage, 20 DAT, 50 g/ha) and 20% in experiment [4] (336 h, 4.0-4.5 leaf stage, 14 DAT, 50 g/ha). Besides, in experiment [2] (480 h, 3.1-3.5 leaf stage, 20 DAT, 100 g/ha), the inhibition at 100 g/ha was determined as 30%. The inhibition at 200 g/ha in experiment [2] (480 h, 3.1-3.5 leaf stage, 20 DAT, 200 g/ha) came to 35%. Moreover, the inhibition at 400 g/ha in experiment [2] (480 h, 3.1-3.5 leaf stage, 20 DAT, 400 g/ha) turned out to be 40%; in experiment [4] (336 h, 4.0-4.5 leaf stage, 14 DAT, 400 g/ha), 30%. The inhibition at 600 g/ha in experiment [2] (480 h, 3.1-3.5 leaf stage, 20 DAT, 600 g/ha) came to 80%. The inhibition at 800 g/ha was found to be 100% in experiment [2] (480 h, 3.1-3.5 leaf stage, 20 DAT, 800 g/ha) and 40% in experiment [4] (336 h, 4.0-4.5 leaf stage, 14 DAT, 800 g/ha). Also, the inhibition at 175 g/ha in experiment [2] (setting [5]) and in experiment [4] (3.5-4.3 leaf stage) was 0% each time. Further, the inhibition at 375 g/ha in experiment [2] (528 h, 4.0-4.4 leaf stage, 22 DAT, 375 g/ha) is 25%; in experiment [4], 0%. Further, the inhibition at 63 g/ha in experiment [3] (3.0-3.3 leaf stage) came to 30%.

As usually defined, the inhibition is the percentage by which the read-out fell short of the control.

Source of the values: patent US8492310B2, “Herbicidal compositions containing benzoylpyrazole compounds” (priority 2008, dated 2013).
